The values that follow come from patent US20170166598A1, “HETEROARYL COMPOUNDS FOR KINASE INHIBITION” (ARIAD PHARMACEUTICALS, INC., priority 2014, published 2017).

Molecules are shown by their SMILES.

A word on the IC50: it is the concentration that inhibits the measured activity by half. A high value points to a need for much substance.

What all share (type): cell-based
The target of test [1] is T1, Her2 exon 20 YVMA insertion (A775_G776ins YVMA) (Homo sapiens, UniProt P04626, INS775YVMA).
T1 construct: expressed in transfected cells; host or cells: Ba/F3 (murine pro-B) cells transduced with lentivirus from pLVX-IRES puro
As to the kind of experiment: Ba/F3-Her2 Exon20 YVMA cell anti-proliferative assay (CellTiter 96 MTS, 72 h). To be noted: Ba/F3-Her2 Exon20 YVMA cells. The source says:
A compound's ability in selectively inhibiting Her2 exon 20 YVMA insertion mutations can be assessed using Ba/F3 cells, a murine pro-B cell line, which have been transduced with Her2 Exon20 YVMA insertions. An expression vector, pLVX-IRES puro (Clontech) coding for […] (A775_G776ins YVMA), was transfected into HEK293 cells by the Trans-Lentiviral ORF Packaging System (Thermo Scientific), to produce virus encoding EGFR exon 20 insertions. Ba/F3 (DSMZ) cells maintained in RPMI 1640 medium supplemented with 10% fetal bovine serum, 200 μM L-glutamine/200 μg/mL penicillin/200 μg/mL streptomycin (Life Technology) and 10 ng/mL IL-3 (R&D system), were infected by EGFR Exon20 virus and subsequently selected by puromycin (Life Technology) selection and IL-3 depletion. Ba/F3 cells expressing Her2 Exon20 YVMA insertions (named Ba/F3-Her2 Exon20 YVMA) can proliferate in the absence of IL-3. The anti-proliferative activity of compounds was determined as follows: BaF3-Her2 Exon20 YVMA cells seeded in 96 well plates (2500 cells/well) were treated with test compound (dissolved in DMSO) at a series of concentrations (4-fold dilution, top concentration: 10,000 nM). The plates were incubated for 72 h in a 37° C. incubator with 5% CO2, and the number of viable cells in each well were measured indirectly by CellTiter 96@ Aqueous One Solution Cell Proliferation Assay (Promega; this assay is a colorimetric method for determining the number of viable cells through measurement of their metabolic activity by detection of enzymatic conversion of tetrazolium salts into blue formazan derivatives). Reagent (20 μL) was added into each well, and the plates were returned to the incubator for 2 h. The absorbance in each well was then measured at 490 nm using an Envision plate reader (Perkin Elmer).

The target in test [2] is T2, human EGFR exon 20 insertion ASV (V769_D770insASV) (Homo sapiens, UniProt P00533, INS769ASV).
T2 construct: expressed in transfected cells; host or cells: Ba/F3 (murine pro-B) cells transduced with lentivirus from pLVX-IRES puro
Briefly: Ba/F3-EGFR-Exon20-ASV cell anti-proliferative assay (CellTiter 96 MTS, 72 h). Conditions: Ba/F3-EGFR-Exon20-ASV cells. As for the experimental part:
(§1) An expression vector, pLVX-IRES puro (Clontech) coding for human EGFR exon 20 insertions NPG (H773_V774insNPG) or ASV (V769_D770insASV), was transfected into HEK293 cells by the Trans-Lentiviral ORF Packaging System (Thermo Scientific), to produce virus encoding EGFR exon 20 insertions. Ba/F3 (DSMZ) cells maintained in RPMI 1640 medium supplemented with 10% fetal bovine serum, 200 μM L-glutamine/l 200 μg/mL penicillin/200 μg/mL streptomycin (Life Technology) and 10 ng/mL IL-3 (R&D system), were infected by EGFR Exon20 virus and subsequently selected by puromycin (Life Technology) selection and IL-3 depletion. […] The anti-proliferative activity of compounds were determined as follows: BaF3-EGFR-Exon20 cells (NPG or ASV) seeded in 96 well plates (2500 cells/well) were treated with test compound (dissolved in DMSO) at a series of concentrations (4-fold dilution, top concentration: 10,000 nM). The plates were incubated for 72 h in a 37° C. incubator with 5% CO2, and the number of viable cells in each well were measured indirectly by CellTiter 96® Aqueous One Solution Cell Proliferation Assay (Promega) This assay is a colorimetric method for determining the number of viable cells through measurement of their metabolic activity by detection of enzymatic conversion of tetrazolium salts into blue formazan derivatives. Reagent (20 μL) was added into each well, and the plates were returned to the incubator for 2 h. The absorbance in each well was then measured at 490 nm using an Envision plate reader (Perkin Elmer).

In test [3] the target is T3, human EGFR exon 20 insertion NPG (H773_V774insNPG) (Homo sapiens, UniProt P00533, INS772GNP).
T3 construct: expressed in transfected cells; host or cells: Ba/F3 (murine pro-B) cells transduced with lentivirus from pLVX-IRES puro
Briefly: Ba/F3-EGFR-Exon20-NPG cell anti-proliferative assay (CellTiter 96 MTS, 72 h). Conditions: Ba/F3-EGFR-Exon20-NPG cells. As for the experimental part:
as §1

Test [4] has as its target T4, human EGFR E746-A750 deletion and T790M Mutation (Homo sapiens, UniProt P00533, DEL746-750/T790M).
T4 construct: expressed in transfected cells; host or cells: Ba/F3 (murine pro-B) cells transduced with lentivirus from pLVX-IRES puro
Briefly: Ba/F3-EGFR-Del/T790M cell anti-proliferative assay (CellTiter 96 MTS, 72 h). To be noted: Ba/F3-EGFR-Del/T790M cells. As for the experimental part:
An expression vector, pLVX-IRES puro (Clontech) coding for human EGFR E746-A750 deletion and T790M Mutation, was transfected into HEK293 cells by the Trans-Lentiviral ORF Packaging System (Thermo Scientific), to produce virus encoding EGFR exon 19 deletion and T790M mutations. Ba/F3 (DSMZ) cells maintained in RPMI 1640 medium supplemented with 10% fetal bovine serum, 200 μM L-glutamine/200 μg/mL penicillin/200 μg/mL streptomycin (Life Technology) and 10 ng/mL IL-3 (R&D system), were infected by EGFR E746-A750 deletion and T790M Mutation virus and subsequently selected by puromycin (Life Technology) selection and IL-3 depletion. […] The anti-proliferative activity of compounds was determined as follows: BaF3-EGFR-Del/T790M cells seeded in 96 well plates (2500 cells/well) were treated with test compound (dissolved in DMSO) at a series of concentrations (4-fold dilution, top concentration: 10,000 nM). The plates were incubated for 72 h in a 37° C. incubator with 5% CO2, and the number of viable cells in each well were measured indirectly by CellTiter 96® Aqueous One Solution Cell Proliferation Assay (Promega; this assay is a colorimetric method for determining the number of viable cells through measurement of their metabolic activity by detection of enzymatic conversion of tetrazolium salts into blue formazan derivatives). Reagent (20 μL) was added into each well, and the plates were returned to the incubator for 2 h. The absorbance in each well was then measured at 490 nm using an Envision plate reader (Perkin Elmer).

T3 sequence (P00533 with tags, fused parts or gaps INS772GNP): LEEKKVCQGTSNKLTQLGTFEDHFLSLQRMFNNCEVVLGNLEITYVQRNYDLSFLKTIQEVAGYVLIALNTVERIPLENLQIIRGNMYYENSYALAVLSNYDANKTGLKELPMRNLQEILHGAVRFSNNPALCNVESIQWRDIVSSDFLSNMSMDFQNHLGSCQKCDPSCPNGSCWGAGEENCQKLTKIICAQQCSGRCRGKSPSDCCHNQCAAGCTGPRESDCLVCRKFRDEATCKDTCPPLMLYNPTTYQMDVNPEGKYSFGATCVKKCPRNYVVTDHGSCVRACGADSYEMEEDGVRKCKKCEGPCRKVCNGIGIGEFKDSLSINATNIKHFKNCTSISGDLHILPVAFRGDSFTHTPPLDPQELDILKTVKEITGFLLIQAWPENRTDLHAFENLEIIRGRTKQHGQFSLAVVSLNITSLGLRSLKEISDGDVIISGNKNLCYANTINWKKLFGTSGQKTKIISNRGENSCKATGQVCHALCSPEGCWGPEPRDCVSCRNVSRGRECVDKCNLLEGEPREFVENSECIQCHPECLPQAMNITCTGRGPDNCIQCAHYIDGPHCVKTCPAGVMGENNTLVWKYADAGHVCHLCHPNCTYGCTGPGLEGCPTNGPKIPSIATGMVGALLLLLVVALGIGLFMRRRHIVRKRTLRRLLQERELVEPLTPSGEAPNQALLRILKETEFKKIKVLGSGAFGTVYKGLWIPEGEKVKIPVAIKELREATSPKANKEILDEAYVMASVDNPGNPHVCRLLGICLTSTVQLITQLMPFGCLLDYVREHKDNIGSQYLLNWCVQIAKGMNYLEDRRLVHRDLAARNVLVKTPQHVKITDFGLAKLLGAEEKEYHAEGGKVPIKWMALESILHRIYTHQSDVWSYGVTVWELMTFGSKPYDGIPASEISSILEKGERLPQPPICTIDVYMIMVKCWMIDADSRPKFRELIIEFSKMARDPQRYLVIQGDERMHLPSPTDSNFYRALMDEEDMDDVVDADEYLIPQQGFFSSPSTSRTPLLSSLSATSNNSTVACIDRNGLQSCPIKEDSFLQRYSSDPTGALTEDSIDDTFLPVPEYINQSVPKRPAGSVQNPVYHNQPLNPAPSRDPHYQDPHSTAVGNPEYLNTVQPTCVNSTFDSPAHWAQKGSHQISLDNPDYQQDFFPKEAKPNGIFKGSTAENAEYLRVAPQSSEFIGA
T4 sequence (P00533 with tags, fused parts or gaps DEL746-750/T790M): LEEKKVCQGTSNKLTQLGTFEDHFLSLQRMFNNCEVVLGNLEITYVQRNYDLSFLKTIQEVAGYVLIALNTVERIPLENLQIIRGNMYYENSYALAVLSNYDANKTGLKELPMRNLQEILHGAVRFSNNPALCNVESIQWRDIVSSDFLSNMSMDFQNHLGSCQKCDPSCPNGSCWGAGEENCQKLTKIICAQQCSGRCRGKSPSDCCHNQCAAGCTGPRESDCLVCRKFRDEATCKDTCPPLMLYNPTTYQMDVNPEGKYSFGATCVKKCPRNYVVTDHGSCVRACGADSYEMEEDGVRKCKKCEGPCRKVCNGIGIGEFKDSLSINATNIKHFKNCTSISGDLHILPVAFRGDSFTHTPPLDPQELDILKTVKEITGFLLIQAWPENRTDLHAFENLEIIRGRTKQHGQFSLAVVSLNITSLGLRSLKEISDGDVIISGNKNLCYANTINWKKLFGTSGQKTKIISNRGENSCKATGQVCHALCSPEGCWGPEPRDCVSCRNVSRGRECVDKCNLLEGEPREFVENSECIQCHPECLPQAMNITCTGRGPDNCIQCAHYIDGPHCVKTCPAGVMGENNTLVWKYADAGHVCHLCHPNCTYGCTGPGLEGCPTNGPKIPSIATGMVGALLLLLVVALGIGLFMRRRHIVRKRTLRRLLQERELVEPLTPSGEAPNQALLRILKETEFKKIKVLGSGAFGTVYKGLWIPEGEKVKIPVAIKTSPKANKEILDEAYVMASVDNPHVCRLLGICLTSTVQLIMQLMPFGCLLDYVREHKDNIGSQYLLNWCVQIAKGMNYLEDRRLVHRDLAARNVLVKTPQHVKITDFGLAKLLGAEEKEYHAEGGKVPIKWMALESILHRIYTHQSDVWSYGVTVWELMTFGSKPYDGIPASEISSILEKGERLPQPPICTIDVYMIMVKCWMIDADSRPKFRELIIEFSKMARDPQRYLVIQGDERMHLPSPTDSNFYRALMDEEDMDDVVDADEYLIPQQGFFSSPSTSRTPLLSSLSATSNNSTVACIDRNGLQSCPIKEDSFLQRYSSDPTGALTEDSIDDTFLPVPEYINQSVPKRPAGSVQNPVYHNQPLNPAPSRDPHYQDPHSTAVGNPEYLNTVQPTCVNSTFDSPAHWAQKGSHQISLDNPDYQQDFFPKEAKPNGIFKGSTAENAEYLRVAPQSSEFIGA
T1 sequence (P04626 with tags, fused parts or gaps INS775YVMA): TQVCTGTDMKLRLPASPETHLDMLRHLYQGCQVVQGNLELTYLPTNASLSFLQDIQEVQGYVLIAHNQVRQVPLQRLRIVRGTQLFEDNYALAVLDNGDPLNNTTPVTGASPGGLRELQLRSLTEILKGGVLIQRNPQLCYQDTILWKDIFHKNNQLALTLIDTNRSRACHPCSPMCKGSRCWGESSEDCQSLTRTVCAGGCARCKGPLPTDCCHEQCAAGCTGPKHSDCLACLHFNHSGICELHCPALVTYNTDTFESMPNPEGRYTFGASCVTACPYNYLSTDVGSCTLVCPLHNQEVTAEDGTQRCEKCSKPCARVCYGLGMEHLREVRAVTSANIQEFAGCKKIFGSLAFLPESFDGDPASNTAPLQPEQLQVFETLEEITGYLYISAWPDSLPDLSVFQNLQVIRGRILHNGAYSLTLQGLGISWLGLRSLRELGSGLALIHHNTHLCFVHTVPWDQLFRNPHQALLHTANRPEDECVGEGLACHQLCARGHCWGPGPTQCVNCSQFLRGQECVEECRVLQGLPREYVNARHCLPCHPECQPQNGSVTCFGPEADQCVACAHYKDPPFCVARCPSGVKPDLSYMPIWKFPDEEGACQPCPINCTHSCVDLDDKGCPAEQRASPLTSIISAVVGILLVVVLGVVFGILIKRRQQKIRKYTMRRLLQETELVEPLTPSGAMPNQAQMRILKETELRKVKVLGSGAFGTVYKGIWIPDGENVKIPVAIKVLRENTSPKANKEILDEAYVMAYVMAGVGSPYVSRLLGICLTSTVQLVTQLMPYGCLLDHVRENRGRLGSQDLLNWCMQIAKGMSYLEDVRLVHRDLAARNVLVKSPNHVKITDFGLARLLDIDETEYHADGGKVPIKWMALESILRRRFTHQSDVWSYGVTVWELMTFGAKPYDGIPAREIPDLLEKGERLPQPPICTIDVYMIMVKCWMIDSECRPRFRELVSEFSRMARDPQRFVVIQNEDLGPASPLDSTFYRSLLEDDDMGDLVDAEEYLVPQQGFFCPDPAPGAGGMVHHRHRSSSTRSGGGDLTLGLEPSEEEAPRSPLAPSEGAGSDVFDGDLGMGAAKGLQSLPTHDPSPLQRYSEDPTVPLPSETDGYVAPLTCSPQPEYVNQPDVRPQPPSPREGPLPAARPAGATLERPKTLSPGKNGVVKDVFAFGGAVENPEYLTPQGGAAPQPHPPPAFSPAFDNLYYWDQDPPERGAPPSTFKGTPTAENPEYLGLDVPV
T2 sequence (P00533 with tags, fused parts or gaps INS769ASV): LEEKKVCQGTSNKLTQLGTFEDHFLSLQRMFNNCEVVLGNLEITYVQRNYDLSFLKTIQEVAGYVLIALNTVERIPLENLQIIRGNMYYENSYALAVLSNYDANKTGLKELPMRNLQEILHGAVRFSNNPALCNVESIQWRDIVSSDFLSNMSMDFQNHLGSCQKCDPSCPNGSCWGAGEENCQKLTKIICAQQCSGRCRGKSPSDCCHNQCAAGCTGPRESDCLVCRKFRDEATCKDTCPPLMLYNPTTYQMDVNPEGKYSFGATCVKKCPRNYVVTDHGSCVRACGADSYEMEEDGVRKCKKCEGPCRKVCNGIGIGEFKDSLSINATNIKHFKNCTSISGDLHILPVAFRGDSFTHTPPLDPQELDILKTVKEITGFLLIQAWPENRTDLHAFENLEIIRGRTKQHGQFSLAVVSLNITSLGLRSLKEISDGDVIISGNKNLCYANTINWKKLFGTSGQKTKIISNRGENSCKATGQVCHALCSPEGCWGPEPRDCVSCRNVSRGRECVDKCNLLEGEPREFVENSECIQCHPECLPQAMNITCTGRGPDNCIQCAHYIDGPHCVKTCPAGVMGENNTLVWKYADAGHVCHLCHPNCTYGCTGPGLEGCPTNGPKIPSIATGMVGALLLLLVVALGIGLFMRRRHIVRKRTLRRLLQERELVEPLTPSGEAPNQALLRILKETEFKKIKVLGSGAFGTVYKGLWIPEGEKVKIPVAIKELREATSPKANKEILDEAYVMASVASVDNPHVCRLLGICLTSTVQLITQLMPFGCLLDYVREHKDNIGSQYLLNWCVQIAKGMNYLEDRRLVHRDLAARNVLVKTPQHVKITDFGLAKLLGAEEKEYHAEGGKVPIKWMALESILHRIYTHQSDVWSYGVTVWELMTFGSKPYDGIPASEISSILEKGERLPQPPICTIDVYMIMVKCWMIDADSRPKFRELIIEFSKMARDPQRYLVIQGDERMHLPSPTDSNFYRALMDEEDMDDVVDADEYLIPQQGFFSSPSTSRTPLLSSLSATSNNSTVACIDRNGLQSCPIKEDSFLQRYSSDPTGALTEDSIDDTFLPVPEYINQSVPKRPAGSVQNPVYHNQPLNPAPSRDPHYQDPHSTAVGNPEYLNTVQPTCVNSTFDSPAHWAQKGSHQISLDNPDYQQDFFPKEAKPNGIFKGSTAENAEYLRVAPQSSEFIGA

On to `C=CC(=O)Nc1cc(Nc2ncc(C(CC)OC)c(-c3cn4c5c(cccc35)CCC4)n2)c(OC)cc1N(C)CCN(C)C` (centres unmarked) [Example 87], for which the IC50 in test [1] is 100 to 500 nM; in test [2] it was 100 to 500 nM; in test [3] it was under 100 nM. In test [4], the “EGFR exon 19 deletion and exon 20 T790M mutation IC50” value is reported as “A (IC50 value for the indicated mutant below about 100 nM)”.

Take `C=CC(=O)Nc1cc(Nc2ncc(-c3ncnn3C)c(-c3cn4c5c(cccc35)CCC4)n2)c(OC)cc1N(C)CCN(C)C` [Example 111]: the IC50 in test [1] is 100 to 500 nM; in test [2], under 100 nM; in test [3], under 100 nM. Also, in test [4], the “EGFR exon 19 deletion and exon 20 T790M mutation IC50” value was “A (IC50 value for the indicated mutant below about 100 nM)”.

In the case of `C=CC(=O)Nc1cc(Nc2ncc(C#N)c(-c3cn4c5c(cccc35)N(C)C(=O)C4)n2)c(OC)cc1N(C)CCN(C)C` [Example 52, N-(5-((5-cyano-4-(1-methyl-2-oxo-2,3-dihydro-1H-pyrrolo[1,2,3-de]quinoxalin-6-yl)pyrimidin-2-yl)amino)-2-((2-(dimethylamino)ethyl)(methyl)amino)-4-methoxyphenyl)acrylamide], the IC50 in test [1], in test [2] and in test [3] was under 100 nM in each case. The “EGFR exon 19 deletion and exon 20 T790M mutation IC50” value in test [4] is “A (IC50 value for the indicated mutant below about 100 nM)”.

In the case of `C=CC(=O)Nc1cc(Nc2ncc(C(=O)OC(C)C)c(-c3cn4c5c(cccc35)CCC4)n2)c(OC)cc1N(C)CCN(C)C` [Example 103], the IC50 in test [1], in test [2] and in test [3] was under 100 nM throughout. The “EGFR exon 19 deletion and exon 20 T790M mutation IC50” value in test [4] is “A (IC50 value for the indicated mutant below about 100 nM)”.

With `C=CC(=O)Nc1cc(Nc2nccc(-c3c(N4CC[C@H](O)C4)n4c5c(cccc35)CCC4)n2)c(OC)cc1N(C)CCN(C)C` [Example 75], the IC50 in test [1], in test [2] and in test [3] was under 100 nM each time. Further, in test [4], the “EGFR exon 19 deletion and exon 20 T790M mutation IC50” value is “A (IC50 value for the indicated mutant below about 100 nM)”.

In the case of `C=CC(=O)Nc1cc(Nc2ncc(Cl)c(-c3nn4c5c(cccc35)OCC4)n2)c(OC)cc1N(C)CCN(C)C` [Example 57, N-(5-((5-chloro-4-(2,3-dihydro-[1,4]oxazino[2,3,4-hi]indazol-6-yl)pyrimidin-2-yl)amino)-2-((2-(dimethylamino)ethyl)(methyl)amino)-4-methoxyphenyl)acrylamide], the IC50 in test [1] is 100 to 500 nM; in test [2], under 100 nM; in test [3], under 100 nM. The “EGFR exon 19 deletion and exon 20 T790M mutation IC50” value in test [4] is “A (IC50 value for the indicated mutant below about 100 nM)”.

For `C=CC(=O)Nc1cc(Nc2ncc(C(=O)OC)c(-c3cn4c5c(cccc35)CCC4)n2)c(OC)cc1N(C)CCN(C)C` [Example 44, methyl 2-((5-acrylamido-4-((2-(dimethylamino)ethyl)(methyl)amino)-2-methoxyphenyl)amino)-4-(5,6-dihydro-4H-pyrrolo[3,2,1-ij]quinolin-1-yl)pyrimidin-5-carboxylate], the half-inhibitory concentration (IC50) in test [1], in test [2] and in test [3] was under 100 nM in each case. For the same compound, in test [4], the “EGFR exon 19 deletion and exon 20 T790M mutation IC50” value is “A (IC50 value for the indicated mutant below about 100 nM)”.

In the case of `C=CC(=O)Nc1cc(Nc2ncc(NC(=O)CC)c(-c3cn4c5c(cccc35)CCC4)n2)c(OC)cc1N(C)CCN(C)C` [Example 91], the IC50 in test [1] was 100 to 500 nM; in test [2] it was under 100 nM; in test [3] it was under 100 nM. Moreover, the “EGFR exon 19 deletion and exon 20 T790M mutation IC50” value in test [4] is reported as “A (IC50 value for the indicated mutant below about 100 nM)”.

On to `C=CC(=O)Nc1cc(Nc2ncc(CO)c(-c3cn4c5c(cccc35)CCC4)n2)c(OC)cc1N(C)CCN(C)C` [Example 70, N-(5-((4-(5,6-dihydro-4H-pyrrolo[3,2,1-ij]quinolin-1-yl)-5-(hydroxymethyl)pyrimidin-2-yl)amino)-2-((2-(dimethylamino)ethyl)-(methyl)amino)-4-methoxyphenyl)acrylamide], for which the IC50 in test [1] was 100 to 500 nM; in test [2], under 100 nM; in test [3], under 100 nM. Further, the “EGFR exon 19 deletion and exon 20 T790M mutation IC50” value in test [4] is on record as “A (IC50 value for the indicated mutant below about 100 nM)”.

In the case of `C=CC(=O)Nc1cc(Nc2ncc(SCCO)c(-c3cn4c5c(cccc35)CCC4)n2)c(OC)cc1N(C)CCN(C)C` [Example 58, N-(5-((4-(5,6-dihydro-4H-pyrrolo[3,2,1-ij]quinolin-1-yl)-5-((2-hydroxyethyl)thio)pyrimidin-2-yl)amino)-2-((2-(dimethylamino)ethyl)(methyl)amino)-4-methoxyphenyl)acrylamide], the IC50 is 100 to 500 nM in test [1], under 100 nM in test [2] and under 100 nM in test [3]. Also, the “EGFR exon 19 deletion and exon 20 T790M mutation IC50” value in test [4] is given as “A (IC50 value for the indicated mutant below about 100 nM)”.

As to `C=CC(=O)Nc1cc(Nc2ncc(CC)c(-c3cn4c5c(cccc35)N(C)C(=O)C4)n2)c(OC)cc1N(C)CCN(C)C` [Example 66, N-(2-((2-(dimethylamino)ethyl)(methyl)amino)-5-((5-ethyl-4-(1-methyl-2-oxo-2,3-dihydro-1H-pyrrolo[1,2,3-de]quinoxalin-6-yl)pyrimidin-2-yl)amino)-4-methoxyphenyl)acrylamide], the IC50 in test [1], in test [2] and in test [3] was under 100 nM in each case. Also, in test [4], the “EGFR exon 19 deletion and exon 20 T790M mutation IC50” value was “A (IC50 value for the indicated mutant below about 100 nM)”.

Take `C=CC(=O)Nc1cc(Nc2ncc(Cl)c(-c3cn4c5c(cccc35)CCC4)n2)c(OC)cc1N(C)CCN1CCCC1` [Example 24, N-(5-((5-chloro-4-(5,6-dihydro-4H-pyrrolo[3,2,1-ij]quinolin-1-yl)pyrimidin-2-yl)amino)-4-methoxy-2-(methyl(2-(pyrrolidin-1-yl)ethyl)amino)phenyl)acrylamide]: the figures for the IC50 in test [1] and in test [3] were 100 to 500 nM and under 100 nM, respectively. Moreover, the “EGFR exon 19 deletion and exon 20 T790M mutation IC50” value in test [4] was “A (IC50 value for the indicated mutant below about 100 nM)”.
